Source: US20090298811A1, “BENZIMIDAZOLONE DERIVATIVES” (Pfizer Inc, priority 2006, published 2009)

How the values were obtained:
human CB1 receptor [1] = biological target: T1, human CB1 receptor (Homo sapiens, UniProt P21554); test: Human CB1 receptor binding, [3H] CP-55,940 displacement on HEK cell membranes; set-up: expressed in transfected cells; membranes; settings: [3H] CP-55,940 500 pM
Procedure: The Human CB1 receptor binding affinity and other biological activities of the compounds of this invention are determined by the following procedures.
Membrane preparation: Human Embryonic Kidney (HEK) Cells expressing the human CB1 receptor under transcriptional regulation of a tetracycline inducible promoter were grown in Dulbecco's Modified Essential Medium with sodium pyruvate (Invitrogen, Carlsbad, Calif.) containing 10% tetracycline free fetal bovine serum (Clonetech, Mountain View, Calif.) 100 μg/ml hygromycin (Calbiochem, San Diego, Calif.), 5 μg/ml blasticidin (Invitrogen). CB1 receptor expression was induced by addition of 1 μg/ml doxycycline (Calbiochem) and incubation for an additional 24 hours. Cells were released from flasks using Cell Dissociation Buffer (Invitrogen). Cells were pelleted by centrifugation at 500×G for 5 minutes. Membranes were prepared by resuspending cells in ice cold TEE Buffer (25 mM Tris pH 7.4, 5 mM EDTA, 5 mM EGTA, Complete Protease Inhibitor (Roche, Basel, Switzerland)). Cells were lysed with 12 strokes of a dounce homogenizer. Unlysed cells were pelleted by centrifugation at 500×G for 5 minutes. Membranes were pelleted by centrifugation at 25,000×G for 30 minutes. Membranes were resuspended in TEE, dounced 12 strokes, and pelleted a second time at 25,000×G for 30 minutes. Membrane pellet was resuspended in 50 mM Tris pH 7.4, 100 mM NaCl, 3 mM MgCl2, 0.2 mM EGTA, Complete Protease Inhibitor (Roche). Protein concentration was determined using the Micro-BCA Protein Assay Kit (Pierce, Rockford, Ill.) using BSA as a standard. Membranes were quick frozen and stored at −80 degrees Celsius until use. Binding experiments: 50 μl of test compound was incubated with 50 μl, of [^3H] CP-55,940 (Perkin Elmer, Boston, Mass.) (final concentration 500 pM) and 150 μl of membrane homogenate (1 μg/well) in polypropylene 96-well plates (Corning, Acton, Mass.). Final reaction conditions were 50 mM Tris pH 7.4, 100 mM NaCl, 3 mM MgCl2, 0.2 mM EGTA, 0.04% BSA. Nonspecific binding was determined by incubation with 50 μM WIN-55,212-2 (Tocris, Ellisville, Mo.). After incubation at room temperature for 60 minutes reactions were harvested by vacuum filtration through Unifilter GF/B-96 filters (Perkin Elmer) that had been presoaked in assay buffer containing 0.5% BSA (Sigma, St. Louis, Mo.) using a FilterMate Plate Harvester (Perkin Elmer). Filters were rinsed 4 times with 50 mM Tris pH 7.4, 0.025% Tween20 and dried at 50 degrees Celsius for at least 30 minutes. 40 μl of Microscint-20 (Perkin Elmer) was added per well, and plates were counted using a Top-Count Microplate Scintillation Counter (Perkin Elmer). Binding data were analyzed and EC50 and Ki values calculated using Graph Pad Prism 4.0 Software.

human CB1 receptor [2] = biological target: T1, human CB1 receptor; test: GTPγS binding on membranes of CHO cells expressing the human CB1 receptor; assay type: biochemical; set-up: expressed in transfected cells; host or cells: CHO cells (G418 selection); membranes; settings: CHO cell membranes, [35S] GTPγS
Procedure: Membrane preparation: CHO cells expressing the human CB1 receptor were grown to 80% confluence in Ham's F-12 Nutrient Medium (Invitrogen) containing 10% fetal bovine serum (Invitrogen), 1% pen/strep (Invitrogen), 1% Nonessential amino acids (Invitrogen) and 500 μg/ml G418 (Invitrogen). Cells were released from flasks using Cell Dissociation Buffer (Invitrogen). Cells were pelleted by centrifugation at 500×G for 5 minutes. Membranes were prepared by resuspending cells in ice cold Assay Buffer (25 mM Tris pH 7.4, 5 mM EDTA, 5 mM EGTA, Complete Protease Inhibitor (Roche)). Cells were lysed with 12 strokes of a dounce homogenizer. Unlysed cells were pelleted by centrifugation at 500×G for 5 minutes. Membranes were pelleted by centrifugation at 25,000×G for 30 minutes. Membranes were resuspended in TEE, dounced 12 strokes, and pelleted a second time at 25,000×G for 30 minutes. Membrane pellet was resuspended in 50 mM Tris pH 7.4, 100 mM NaCl, 3 mM MgCl2, 0.2 mM EGTA, Complete Protease Inhibitor (Roche). Protein concentration was determined using the Micro-BCA Protein Assay Kit (Pierce) using BSA as a standard. Membranes were frozen and stored at −80 degrees Celsius until use. GTPγS Binding: 40 μl of test compound was incubated with 20 μl of [^35S] GTPγS (Perkin Elmer) (1250 Ci/millimole) and 140 μl of membrane homogenate (5 ug/well) in polypropylene 96-well plates (Corning). Final reaction conditions were 50 mM Tris pH 7.4, 100 mM NaCl, 3 mM […], 0.2 mM EGTA, 0.04% BSA. After incubation at 37 degrees Celsius for 45 minutes reactions were harvested by vacuum filtration through Unifilter GF/B-96 filters (Perkin Elmer) using a FilterMate Plate Harvester (Perkin Elmer). Filters were rinsed 4 times with ice cold 50 mM Tris pH 7.4, 3 mM MgCl2, 0.2 mM EGTA and dried at 50 degrees Celsius for at least 30 minutes. 40 μl of Microscint-20 (Perkin Elmer) was added per well, and plates were counted using a Top-Count Microplate Scintillation Counter (Perkin Elmer). Binding data were analyzed and EC50 values were calculated using Graph Pad Prism 4.0 Software.

T1 sequence (P21554 whole entry): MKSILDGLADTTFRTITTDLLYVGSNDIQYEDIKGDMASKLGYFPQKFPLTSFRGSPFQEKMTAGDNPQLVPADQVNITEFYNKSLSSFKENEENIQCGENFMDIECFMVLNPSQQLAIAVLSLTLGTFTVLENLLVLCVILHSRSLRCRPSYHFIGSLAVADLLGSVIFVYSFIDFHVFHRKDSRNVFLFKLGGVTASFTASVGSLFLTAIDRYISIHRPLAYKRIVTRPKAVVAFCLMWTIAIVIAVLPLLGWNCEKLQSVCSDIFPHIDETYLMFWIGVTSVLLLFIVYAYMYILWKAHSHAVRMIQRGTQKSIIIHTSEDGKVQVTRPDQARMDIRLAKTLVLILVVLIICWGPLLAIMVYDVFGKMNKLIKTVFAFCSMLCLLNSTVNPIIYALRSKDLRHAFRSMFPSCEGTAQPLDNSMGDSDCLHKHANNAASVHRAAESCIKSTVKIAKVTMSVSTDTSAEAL

SMILES	Ki (human CB1 receptor [1])	EC50 (human CB1 receptor [2])
CC(C)(C)[C@H](NC(=O)n1c(=O)n(CC2CCCCC2)c2ccccc21)C(N)=O [Example 200]	0.52 nM	96.9 nM
CC(C)(C)[C@H](NC(=O)n1c(=O)n(CC2CCC2)c2ccccc21)C(N)=O [Example 201]	4.94 nM	45.3 nM
CCCCCn1c(=O)n(C(=O)N[C@H](C(N)=O)C(C)(C)C)c2ccccc21 [Example 202]	4.52 nM	20.1 nM
CC(C)[C@H](NC(=O)n1c(=O)n(CC2CCCCC2)c2ccccc21)C(N)=O [Example 203]	8.23 nM	74.1 nM
CCCCCn1c(=O)n(C(=O)N[C@H](C(N)=O)C(C)C)c2ccccc21 [Example 205]	69 nM	422 nM
CC(C)(C)[C@H](NC(=O)n1c(=O)n(CCC2CCC2)c2ccccc21)C(N)=O [Example 217]	1.28 nM	3.2 nM
CC(C)(C)[C@H](NC(=O)n1c(=O)n(CCCCC#N)c2ccccc21)C(N)=O [Example 223]	102 nM	1860 nM
CC(C)(C)[C@H](NC(=O)n1c(=O)n(CC2CCCCO2)c2ccccc21)C(N)=O (stereo partly drawn) [Example 224]	29.9 nM	176 nM
CC(C)(C)[C@H](NC(=O)n1c(=O)n(CC2CCCCC2)c2ncccc21)C(N)=O [Example 226]	5.34 nM	62.1 nM
CC(C)(C)[C@H](NC(=O)n1c(=O)n(CCC(F)(F)F)c2ccccc21)C(N)=O [Example 227]	10.2 nM	245 nM
Cc1ccc2c(c1)n(CC1CCCCC1)c(=O)n2C(=O)NC1(C(N)=O)CCCCC1 [Example 266]	109 nM	> 2850 nM
Cc1ccc2c(c1)n(CC1CCCCC1)c(=O)n2C(=O)N[C@H](CC(C)C)C(N)=O [Example 267]	18.4 nM	> 10000 nM
Cc1ccc2c(c1)n(CC1CCCCC1)c(=O)n2C(=O)N[C@@H](Cc1ccccc1)C(N)=O [Example 268]	130 nM	2580 nM
Cc1ccc2c(c1)n(CC1CCCCC1)c(=O)n2C(=O)N[C@H](C(N)=O)C(C)C [Example 269]	2.95 nM	24 nM
CC(C)(C)[C@H](NC(=O)n1c(=O)n(CC2CCCCC2)c2cccc(F)c21)C(N)=O [Example 271]	1.28 nM	6.53 nM
CC(C)(C)[C@H](NC(=O)n1c(=O)n(CC2CCOCC2)c2cc(C#N)ccc21)C(N)=O [Example 272]	58 nM	45.4 nM
Cc1ccc2c(c1)n(CC1CCCCC1)c(=O)n2C(=O)N[C@H](C(N)=O)C1CCCCC1 [Example 273]	57.5 nM	244 nM
O=C(N[C@H]1CCCc2ccccc21)n1c(=O)n(CC2CCOCC2)c2ccccc21 [Example 276]	0.374 nM	5.8 nM

SMILES	Ki (human CB1 receptor [1])	EC50 (human CB1 receptor [2])
O=C(N[C@H]1c2ccccc2C[C@H]1O)n1c(=O)n(CC2CCOCC2)c2ccccc21 [Example 280]	31 nM	136 nM
CC(C)(C)[C@H](NC(=O)n1c(=O)n(CC2CCOCC2)c2cc(F)ccc21)C(N)=O [Example 290]	19.2 nM	25.1 nM
CCCCn1c(=O)n(C(=O)N[C@H](C(N)=O)C(C)(C)C)c2ccccc21 [Example 292]	2.09 nM	75.1 nM
CC(C)(C)[C@H](NC(=O)n1c(=O)n(CCCC(F)(F)F)c2ccccc21)C(N)=O [Example 293]	1.45 nM	32.4 nM
CC(C)(C)[C@H](NC(=O)n1c(=O)n(CC2CCOCC2)c2ccccc21)C(=O)NC1CC1 [Example 298]	5.27 nM	88.6 nM
CC(C)(C)[C@H](NC(=O)n1c(=O)n(CC2CCOCC2)c2ccccc21)C(=O)NC1CCC1 [Example 300]	41 nM	260 nM
CC(C)(C)[C@@H](CO)NC(=O)n1c(=O)n(CC2CCOCC2)c2cc(F)ccc21 [Example 301]	5.25 nM	268 nM
CC(C)(C)[C@H](NC(=O)n1c(=O)n(CC2CCOCC2)c2ccccc21)C(=O)NCC(N)=O [Example 302]	82.3 nM	407 nM
CNC(=O)[C@@H](NC(=O)n1c(=O)n(CC2CCOCC2)c2ccccc21)C(C)(C)C [Example 303]	5.71 nM	36.6 nM
CC(C)(C)[C@H](NC(=O)n1c(=O)n(CC2CC=C(F)CC2)c2ccccc21)C(N)=O (stereo partly drawn) [Example 304]	0.15 nM	0.87 nM
CC(C)(C)[C@H](NC(=O)n1c(=O)n(CC2CCC(F)(F)CC2)c2ccccc21)C(N)=O [Example 306]	0.31 nM	3.45 nM
CC(C)(C)[C@H](NC(=O)n1c(=O)n(CC2CCCCC2)c2cc(Br)ccc21)C(N)=O [Example 307]	1.85 nM	49.5 nM
CC(C)(C)[C@@H](CO)NC(=O)n1c(=O)n(CC2CCCCC2)c2cc(Br)ccc21 [Example 308]	5.38 nM	20.5 nM
CC(C)(C)[C@H](NC(=O)n1c(=O)n(CC2CCOCC2)c2cc(F)ccc21)C(=O)NC1CC1 [Example 310]	30.2 nM	173 nM
Cc1cc(CNC(=O)n2c(=O)n(CC3CCOCC3)c3ccccc32)c(C)o1 [Example 311]	2.03 nM	57 nM
Cc1cc(CNC(=O)n2c(=O)n(CC3CCOCC3)c3ccccc32)no1 [Example 312]	69.5 nM	380 nM
CC(C)(C)[C@H](NC(=O)n1c(=O)n(CC2CCOCC2)c2ccccc21)C(=O)NCCO [Example 317]	12 nM	83.6 nM
CC(C)(C)[C@H](NC(=O)n1c(=O)n(CC2CCOCC2)c2ccccc21)C(=O)NCCCO [Example 318]	23.9 nM	230 nM
